Measured values from patent US11214803B2, “Modulators of YAP1 expression” (Ionis Pharmaceuticals, Inc., priority 2019, dated 2022).
“And” between values parts separate entries of the source, which are not always exact repeats. Identical values can stand only once. Strand notation (5' to 3'): a small letter for the sugar, then the base; units joined by * are phosphorothioate-linked, units joined directly phosphodiester-linked; [ ] holds rarer units or linkages, { } end groups; capitals alone tell only the bases. k = constrained ethyl (cEt); [5mC] = 5-methylcytosine; d = 2'-deoxy (DNA)

Key:
Yap1 mRNA [1] = test: Dose-dependent inhibition of human Yap1 in A-431 cells (Example 6, 5,000 cells per well, RTS4814); type: cell-based; conditions: A-431 cells; for IC50: Yap1 mRNA, linear regression on a log/linear plot; for % UTC 148 nM / % UTC 444 nM / % UTC 1333 nM / % UTC 4000 nM: free uptake, approximately 48 hours, RTS4814
Procedure, shortened: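 A-431 cells (5,000/well) took up oligonucleotides by free uptake at various doses for about 48 h. Yap1 mRNA was measured by RT-PCR (RTS4814), normalised to RIBOGREEN total RNA and expressed as % untreated control; IC50 by linear regression on a log/linear plot.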

[2] = Tolerability in CD-1 mice, body and organ weights (Example 15); type: in vivo; conditions: male CD-1 mice, 50 mg/kg s.c. twice a week for four weeks (8 treatments), end of study (day 26)
Protocol: (§1) Groups of four male CD-1 mice at 4-5 weeks of age (obtained from Charles River) were injected subcutaneously twice a week for four weeks (for a total of 8 treatments) with 50 mg/kg of modified oligonucleotides. One group of male CD-1 mice was injected with PBS. Mice were euthanized on day 26 post start of treatment (24 hrs following the final administration).
(§2) Body weights of CD-1 mice were measured at the end of the study, and the average body weight for each group is presented in the table below. Modified oligonucleotides that caused any changes in organ weights outside the expected range for modified oligonucleotides were excluded from further studies.

[3] = Tolerability in Balb/c mice, body and organ weights (Example 11); type: in vivo; conditions: 50 mg/kg subcutaneously twice a week for four weeks, end of study
Protocol: (§3) Groups of male Balb/c mice at 4-6 weeks of age (obtained from Taconic) were injected subcutaneously twice a week for four weeks (for a total of 8 treatments) with 50 mg/kg of modified oligonucleotides. One group of male Balb/c mice was injected with PBS. Mice were euthanized on day 26 post start of treatment (24 hours following the final administration).
Body weights of Balb/c mice were measured at the end of the study, and the average body weight for each group is presented in the table below. Modified oligonucleotides that caused any changes in organ weights outside the expected range for modified oligonucleotides were excluded from further studies.

[4] = Tolerability in Balb/c mice, plasma chemistry markers (Example 11); type: in vivo; conditions: 50 mg/kg subcutaneously twice a week for four weeks
Protocol: Balb/c mice were treated with modified oligonucleotides selected from studies described above and evaluated for changes in the levels of various plasma chemistry markers.
as §3

[5] = Tolerability in CD-1 mice, plasma chemistry markers (Example 15); type: in vivo; conditions: male CD-1 mice, 50 mg/kg s.c. twice a week for four weeks (8 treatments), day 26
Protocol: (§4) CD-1 mice were treated with modified oligonucleotides selected from studies described above and evaluated for changes in the levels of various plasma chemistry markers.
as §1

Yap1 mRNA [6] = test: Dose-dependent inhibition of human Yap1 in A-431 cells (Example 7, 10,000 cells per well, RTS36584); type: cell-based; conditions: free uptake
Procedure, shortened: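 Yap1 mRNA was expressed as percent of untreated control after normalization to total RNA (RIBOGREEN), and IC50 was derived by log/linear linear regression. The read-out used primer-probe set RTS36584 roughly 48 hours after free-uptake dosing of oligonucleotides into A-431 cells (10,000 cells/well).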

[7] = Tolerability in CD-1 mice, plasma chemistry markers (Example 17); type: in vivo; conditions: male CD-1 mice, 50 mg/kg s.c. twice a week for four weeks (8 treatments), day 27
Protocol: as §4
(§5) Groups of four male CD-1 mice at 4-5 weeks of age (obtained from Charles River) were injected subcutaneously twice a week for four weeks (for a total of 8 treatments) with 50 mg/kg of modified oligonucleotides. One group of male CD-1 mice was injected with PBS. Mice were euthanized on day 27 post start of treatment (24 hrs following the final administration).

Yap1 mRNA [8] = test: Dose-dependent inhibition of human Yap1 in A-431 cells (Example 8, 10,000 cells per well, RTS4814); type: cell-based; conditions: free uptake, approximately 48 hours, RTS4814; for Yap1 mRNA, % UTC: A-431 cells, 10,000 cells per well
Procedure, shortened: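 Yap1 mRNA, normalized to RIBOGREEN total RNA and expressed as % untreated control, was read with RTS4814 about 48 h after free-uptake oligonucleotide treatment of A-431 cells at 10,000 cells/well. IC50 derived by linear regression of log/linear data.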

[9] = Tolerability in CD-1 mice, body and organ weights (Example 17); type: in vivo; conditions: male CD-1 mice, 50 mg/kg s.c. twice a week for four weeks (8 treatments), end of study (day 27)
Protocol: as §5, §2

[10] = 15.6 nM, A-431 cells, 10,000 cells per well, approximately 48 hours
[11] = 62.5 nM, A-431 cells, 10,000 cells per well, approximately 48 hours
[12] = 4000.00 nM, A-431 cells, 10,000 cells per well, approximately 48 hours

## 715483 (k[5mC]*kT*k[5mC]*dT*dT*dT*dG*dG*dA*dA*dA*d[5mC]*d[5mC]*kA*kT*kT) [compound 715483]
Yap1 mRNA [1]; Table 53
  IC50: 1100 nM
  % UTC 148 nM: 82 % UTC
  % UTC 444 nM: 58 % UTC
  % UTC 1333 nM: 43 % UTC
  % UTC 4000 nM: 35 % UTC
[2]
  Kidney weight: 0.64 g
  Liver weight: 2.26 g
  Spleen weight: 0.21 g
  body weight: 40 g
[3]
  Kidney weight: 0.43 g
  Liver weight: 1.56 g
  Spleen weight: 0.12 g
  body weight: 25 g
[4]
  ALT: 62 U/L
  AST: 70 U/L
  BUN: 16 mg/dL
  TBIL: 0.17 mg/dL
[5]
  ALB: 2.2 g/dL
  ALT: 79 U/L
  AST: 125 U/L
Yap1 mRNA [6]; [10]
  Yap1 mRNA, % UTC: 88 % UTC and 87 % UTC and 77 % UTC
Yap1 mRNA [6]; [11]
  Yap1 mRNA, % UTC: 40 % UTC and 45 % UTC and 36 % UTC
Yap1 mRNA [6]; [12]
  Yap1 mRNA, % UTC: 4 % UTC and 3 % UTC
Yap1 mRNA [6]; Table 56, 15.6 nM, A-431 cells 10,000 cells per well, 48 hours
  Yap1 mRNA, % UTC: 78 % UTC
Yap1 mRNA [6]; Table 56, 62.5 nM, A-431 cells 10,000 cells per well, 48 hours
  Yap1 mRNA, % UTC: 38 % UTC
Yap1 mRNA [6]; Table 56, 4000.00 nM, A-431 cells 10,000 cells per well, 48 hours
  Yap1 mRNA, % UTC: 6 % UTC
Yap1 mRNA [6]; Table 56, A-431 cells 10,000 cells per well
  IC50: 50 nM
Yap1 mRNA [6]; Table 57, 15.6 nM, A-431 cells 10,000 cells per well, 48 hours
  Yap1 mRNA, % UTC: 79 % UTC
Yap1 mRNA [6]; Table 57, 62.5 nM, A-431 cells 10,000 cells per well, 48 hours
  Yap1 mRNA, % UTC: 45 % UTC
Yap1 mRNA [6]; Table 57, 4000.00 nM, A-431 cells 10,000 cells per well, 48 hours
  Yap1 mRNA, % UTC: 4 % UTC
Yap1 mRNA [6]; Table 57, A-431 cells 10,000 cells per well
  IC50: 100 nM
Yap1 mRNA [6]; Table 58, 15.6 nM, A-431 cells 10,000 cells per well, 48 hours
  Yap1 mRNA, % UTC: 84 % UTC
Yap1 mRNA [6]; Table 58, 62.5 nM, A-431 cells 10,000 cells per well, 48 hours
  Yap1 mRNA, % UTC: 44 % UTC
Yap1 mRNA [6]; Table 58, 4000.00 nM, A-431 cells 10,000 cells per well, 48 hours
  Yap1 mRNA, % UTC: 5 % UTC
Yap1 mRNA [6]; Table 58, A-431 cells 10,000 cells per well
  IC50: 100 nM
Yap1 mRNA [6]; Table 59, 15.6 nM, A-431 cells 10,000 cells per well, 48 hours
  Yap1 mRNA, % UTC: 83 % UTC
Yap1 mRNA [6]; Table 59, 62.5 nM, A-431 cells 10,000 cells per well, 48 hours
  Yap1 mRNA, % UTC: 44 % UTC
Yap1 mRNA [6]; Table 59, 4000.00 nM, A-431 cells 10,000 cells per well, 48 hours
  Yap1 mRNA, % UTC: 4 % UTC
Yap1 mRNA [6]; Table 59, A-431 cells 10,000 cells per well
  IC50: 100 nM
Yap1 mRNA [6]; Table 60, 15.6 nM, A-431 cells 10,000 cells per well, 48 hours
  Yap1 mRNA, % UTC: 79 % UTC
Yap1 mRNA [6]; Table 60, 62.5 nM, A-431 cells 10,000 cells per well, 48 hours
  Yap1 mRNA, % UTC: 40 % UTC
Yap1 mRNA [6]; Table 60, 4000.00 nM, A-431 cells 10,000 cells per well, 48 hours
  Yap1 mRNA, % UTC: 3 % UTC
Yap1 mRNA [6]; Table 60, A-431 cells 10,000 cells per well
  IC50: 100 nM
Yap1 mRNA [6]; Table 61, 15.6 nM, A-431 cells 10,000 cells per well, 48 hours
  Yap1 mRNA, % UTC: 80 % UTC
Yap1 mRNA [6]; Table 61, 62.5 nM, A-431 cells 10,000 cells per well, 48 hours
  Yap1 mRNA, % UTC: 38 % UTC
Yap1 mRNA [6]; Table 61, 4000.00 nM, A-431 cells 10,000 cells per well, 48 hours
  Yap1 mRNA, % UTC: 4 % UTC
Yap1 mRNA [6]; Table 61, A-431 cells 10,000 cells per well
  IC50: 100 nM

## 716454 (antisense k[5mC]*kG*kA*dG*dA*dT*dT*dT*dA*dA*dA*dT*dA*kA*kG*kG) [compound 716454]
Yap1 mRNA [1]; Table 54
  IC50: 2600 nM
  % UTC 148 nM: 91 % UTC
  % UTC 444 nM: 71 % UTC
  % UTC 1333 nM: 54 % UTC
  % UTC 4000 nM: 48 % UTC
[2]
  Kidney weight: 0.55 g
  Liver weight: 2.31 g
  Spleen weight: 0.20 g
  body weight: 38 g
[3]
  Kidney weight: 0.42 g
  Liver weight: 1.48 g
  Spleen weight: 0.14 g
  body weight: 25 g
[4]
  ALT: 39 U/L
  AST: 60 U/L
  BUN: 14 mg/dL
  TBIL: 0.18 mg/dL
[5]
  ALB: 2.3 g/dL
  ALT: 44 U/L
  AST: 56 U/L
Yap1 mRNA [6]; [10]
  Yap1 mRNA, % UTC: 84 % UTC
Yap1 mRNA [6]; [11]
  Yap1 mRNA, % UTC: 39 % UTC
Yap1 mRNA [6]; [12]
  Yap1 mRNA, % UTC: 6 % UTC
Yap1 mRNA [6]; A-431 cells, approximately 48 hours, linear regression on log/linear plot
  IC50: 100 nM

## 1075395 (antisense kA*kT*kG*dA*dA*dT*dA*dA*dG*dT*dA*dT*dG*k[5mC]*k[5mC]*kA) [compound 1075395]
[7]
  ALT: 38 U/L
  AST: 51 U/L
  BUN: 21 mg/dL
  TBIL: 0.18 mg/dL
Yap1 mRNA [8]; 31.3 nM
  Yap1 mRNA, % UTC: 60 % UTC
Yap1 mRNA [8]; 125.0 nM
  Yap1 mRNA, % UTC: 18 % UTC
Yap1 mRNA [8]; 500.0 nM
  Yap1 mRNA, % UTC: 7 % UTC
Yap1 mRNA [8]; 2000.00 nM
  Yap1 mRNA, % UTC: 5 % UTC
Yap1 mRNA [8]; A-431 cells, linear regression on log/linear plot
  IC50: < 20 nM
[9]
  Kidney weight: 0.49 g
  Liver weight: 2.30 g
  Spleen weight: 0.20 g
  body weight: 34 g

## 1097037 (kA*kG*kA*dT*dT*dT*dA*dG*dG*dA*dT*dG*d[5mC]*kA*kT*kG; antisense) [compound 1097037]
[7]
  ALT: 73 U/L
  AST: 97 U/L
  BUN: 23 mg/dL
  TBIL: 0.12 mg/dL
[9]
  Kidney weight: 0.52 g
  Liver weight: 2.33 g
  Spleen weight: 0.21 g
  body weight: 33 g
